Measurements reported in ChEMBL document CHEMBL1201861, “Genomics of Drug Sensitity in Cancer screening data, Wellcome Trust Sanger Institute”.

Key:
Assay in all cases: cells
LS-1034 = format: functional, cell-based, Homo sapiens; conditions: Homo sapiens, LS-1034
Description: SANGER: Inhibition of human LS-1034 cell growth in a cell viability assay.

ES3 = format: functional, cell-based, Homo sapiens; conditions: Homo sapiens, ES3;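 further: growth inhibition of ES3 cells, read out with a cell viability assay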
Description: SANGER: Inhibition of human ES3 cell growth in a cell viability assay.

KNS-81-FD = format: functional, cell-based, Homo sapiens; conditions: Homo sapiens, KNS-81-FD;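 further: growth inhibition of KNS-81-FD cells, read out with a cell viability assay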
Description: SANGER: Inhibition of human KNS-81-FD cell growth in a cell viability assay.

Mo = format: functional, cell-based, Homo sapiens; conditions: Homo sapiens, Mo
Description: SANGER: Inhibition of human Mo-T cell growth in a cell viability assay.

ES1 = format: functional, cell-based, Homo sapiens; conditions: Homo sapiens, ES1;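 further: growth inhibition of ES1 cells, read out with a cell viability assay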
Description: SANGER: Inhibition of human ES1 cell growth in a cell viability assay.

IA-LM = format: functional, cell-based; conditions: Homo sapiens;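 further: cell viability assay measuring growth inhibition of human IA-LM cells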
Description: SANGER: Inhibition of human IA-LM cell growth in a cell viability assay.

SNU-C2B = format: functional, cell-based; conditions: Homo sapiens;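 further: cell viability readout used to measure compound-driven suppression of SNU-C2B cell proliferation, IC50 marking half-maximal growth inhibition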
Description: SANGER: Inhibition of human SNU-C2B cell growth in a cell viability assay.

KM12 = format: functional, cell-based, Homo sapiens; conditions: Homo sapiens, KM12;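 further: KM12 cell growth inhibition, read out with a cell viability assay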
Description: SANGER: Inhibition of human KM12 cell growth in a cell viability assay.

PSN1 = format: functional, cell-based, Homo sapiens; conditions: Homo sapiens, PSN1;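 further: suppression of growth of human PSN1 cells, read out by a cell viability assay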
Description: SANGER: Inhibition of human PSN1 cell growth in a cell viability assay.

MLMA = format: functional, cell-based, Homo sapiens; conditions: Homo sapiens, MLMA;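 further: growth inhibition of MLMA cells (human), determined through a cell viability readout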
Description: SANGER: Inhibition of human MLMA cell growth in a cell viability assay.

HL-60 = format: functional, cell-based, Homo sapiens; conditions: Homo sapiens, HL-60;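 further: growth inhibition of human HL-60 cells, read out with a cell viability assay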
Description: SANGER: Inhibition of human HL-60 cell growth in a cell viability assay.

AM-38 = format: functional, cell-based, Homo sapiens; conditions: Homo sapiens, AM-38;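 further: growth inhibition of AM-38 cells of human origin, read out by a cell viability assay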
Description: SANGER: Inhibition of human AM-38 cell growth in a cell viability assay.

SW 954 = format: functional, cell-based, Homo sapiens; conditions: Homo sapiens, SW 954;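 further: growth inhibition of SW954 human cancer cells, read out as cell viability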
Description: SANGER: Inhibition of human SW954 cell growth in a cell viability assay.

ES7 = format: functional, cell-based, Homo sapiens; conditions: Homo sapiens, ES7;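 further: growth inhibition of cultured human ES7 cells, read out as cell viability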
Description: SANGER: Inhibition of human ES7 cell growth in a cell viability assay.

KARPAS-45 = format: functional, cell-based, Homo sapiens; conditions: Homo sapiens, KARPAS-45;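 further: inhibition of cell line growth, read out through a viability assay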
Description: SANGER: Inhibition of human KARPAS-45 cell growth in a cell viability assay.

NCI-H1155 = format: functional, cell-based, Homo sapiens; conditions: Homo sapiens, NCI-H1155;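 further: cell growth inhibition measured by a viability assay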
Description: SANGER: Inhibition of human NCI-H1155 cell growth in a cell viability assay.

SK-N-DZ = format: functional, cell-based, Homo sapiens; conditions: Homo sapiens, SK-N-DZ; read-out: IC50;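 further: growth inhibition of the cancer cell line, read out through a viability assay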
Description: SANGER: Inhibition of human SK-N-DZ cell growth in a cell viability assay.

NCI-H446 = format: functional, cell-based, Homo sapiens; conditions: Homo sapiens, NCI-H446;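 further: growth inhibition of NCI-H446 cells determined by a cell viability assay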
Description: SANGER: Inhibition of human NCI-H446 cell growth in a cell viability assay.

SBC-1 = format: functional, cell-based, Homo sapiens; conditions: Homo sapiens, SBC-1;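 further: cell viability assay measuring growth inhibition of the SBC-1 cell line, IC50 being the concentration that halves growth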
Description: SANGER: Inhibition of human SBC-1 cell growth in a cell viability assay.

CGTH-W-1 = format: functional, cell-based, Homo sapiens; conditions: Homo sapiens, CGTH-W-1;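 further: growth inhibition of human CGTH-W-1 cells measured by cell viability assay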
Description: SANGER: Inhibition of human CGTH-W-1 cell growth in a cell viability assay.

RH-1 = format: functional, cell-based, Homo sapiens; conditions: Homo sapiens, RH-1;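 further: growth inhibition of human RH-1 cells, read out with a cell viability assay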
Description: SANGER: Inhibition of human RH-1 cell growth in a cell viability assay.

D-263MG = format: functional, cell-based, Homo sapiens; conditions: Homo sapiens, D-263MG
Description: SANGER: Inhibition of human D-263MG cell growth in a cell viability assay.

DSH1 = format: functional, cell-based; conditions: Homo sapiens;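 further: growth inhibition of human DSH1 cells, measured with a cell viability readout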
Description: SANGER: Inhibition of human DSH1 cell growth in a cell viability assay.

EW-18 = format: functional, cell-based, Homo sapiens; conditions: Homo sapiens, EW-18; read-out: IC50;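 further: growth inhibition of EW-18 cells, read out by a cell viability assay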
Description: SANGER: Inhibition of human EW-18 cell growth in a cell viability assay.

SF-268 = format: functional, cell-based, Homo sapiens; conditions: Homo sapiens, SF-268;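 further: growth inhibition of SF-268 cells determined with a cell viability assay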
Description: SANGER: Inhibition of human SF268 cell growth in a cell viability assay.

NCI-H226 = format: functional, cell-based, Homo sapiens; conditions: Homo sapiens, NCI-H226;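 further: cell viability read-out used to gauge growth inhibition of the cells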
Description: SANGER: Inhibition of human NCI-H226 cell growth in a cell viability assay.

KALS-1 = format: functional, cell-based, Homo sapiens; conditions: Homo sapiens, KALS-1; read-out: IC50;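 further: growth inhibition of KALS-1 cells, determined with a cell viability assay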
Description: SANGER: Inhibition of human KALS-1 cell growth in a cell viability assay.

GT3TKB = format: functional, cell-based, Homo sapiens; conditions: Homo sapiens, GT3TKB;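 further: growth inhibition of the cell line, read out with a cell viability assay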
Description: SANGER: Inhibition of human GT3TKB cell growth in a cell viability assay.

OS-RC-2 = format: functional, cell-based, Homo sapiens; conditions: Homo sapiens, OS-RC-2;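 further: growth inhibition of human OS-RC-2 cells, measured by a cell viability assay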
Description: SANGER: Inhibition of human OS-RC-2 cell growth in a cell viability assay.

KM-H2 = format: functional, cell-based, Homo sapiens; conditions: Homo sapiens, KM-H2;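 further: growth inhibition of KM-H2 cells, read out by a cell viability assay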
Description: SANGER: Inhibition of human KM-H2 cell growth in a cell viability assay.

COLO-684 = format: functional, cell-based, Homo sapiens; conditions: Homo sapiens, COLO-684
Description: SANGER: Inhibition of human COLO-684 cell growth in a cell viability assay.

C2BBe1 = format: functional, cell-based, Homo sapiens; conditions: Homo sapiens, C2BBe1;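 further: growth inhibition of C2BBe1 cells, read out through a viability assay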
Description: SANGER: Inhibition of human C2BBe1 cell growth in a cell viability assay.

LB2241-RCC = format: functional, cell-based, Homo sapiens; conditions: Homo sapiens, LB2241-RCC;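 further: cell viability assay measuring how strongly the cultured human renal carcinoma line is prevented from growing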
Description: SANGER: Inhibition of human LB2241-RCC cell growth in a cell viability assay.

SK-N-FI = format: functional, cell-based, Homo sapiens; conditions: Homo sapiens, SK-N-FI;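 further: cell viability assay measuring growth inhibition of human SK-N-FI cells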
Description: SANGER: Inhibition of human SK-N-FI cell growth in a cell viability assay.

SW982 = format: functional, cell-based; conditions: Homo sapiens;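 further: growth inhibition of SW982 cells, read out with a cell viability assay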
Description: SANGER: Inhibition of human SW982 cell growth in a cell viability assay.

KINGS-1 = format: functional, cell-based, Homo sapiens; conditions: Homo sapiens, KINGS-1;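 further: cell viability assay measuring suppression of KINGS-1 cell growth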
Description: SANGER: Inhibition of human KINGS-1 cell growth in a cell viability assay.

GOTO = format: functional, cell-based, Homo sapiens; conditions: Homo sapiens, GOTO;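 further: growth inhibition of GOTO cells, read out by a cell viability assay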
Description: SANGER: Inhibition of human GOTO cell growth in a cell viability assay.

RPMI-8226 = format: functional, cell-based, Homo sapiens; conditions: Homo sapiens, RPMI-8226
Description: SANGER: Inhibition of human RPMI-8226 cell growth in a cell viability assay.

NCI-H1648 = format: functional, cell-based, Homo sapiens; conditions: Homo sapiens, NCI-H1648;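 further: cell viability assay measuring inhibition of NCI-H1648 cell growth, from the Sanger screening data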
Description: SANGER: Inhibition of human NCI-H1648 cell growth in a cell viability assay.

NB69 = format: functional, cell-based, Homo sapiens; conditions: Homo sapiens, NB69;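 further: growth inhibition of NB69 cells, determined by a cell viability assay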
Description: SANGER: Inhibition of human NB69 cell growth in a cell viability assay.

A4-Fuk = format: functional, cell-based, Homo sapiens; conditions: Homo sapiens, A4-Fuk;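 further: growth inhibition of A4-Fuk cells, read out by a cell viability assay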
Description: SANGER: Inhibition of human A4-Fuk cell growth in a cell viability assay.

EW-16 = format: functional, cell-based, Homo sapiens; conditions: Homo sapiens, EW-16;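 further: growth inhibition of human EW-16 cells, read out as cell viability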
Description: SANGER: Inhibition of human EW-16 cell growth in a cell viability assay.

LB2518-MEL = format: functional, cell-based; conditions: Homo sapiens;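 further: growth inhibition of human LB2518-MEL cells, measured with a cell viability assay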
Description: SANGER: Inhibition of human LB2518-MEL cell growth in a cell viability assay.

IST-MEL1 = format: functional, cell-based, Homo sapiens; conditions: Homo sapiens, IST-MEL1;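 further: growth inhibition of the cell line, read out with a cell viability assay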
Description: SANGER: Inhibition of human IST-MEL1 cell growth in a cell viability assay.

NOMO-1 = format: functional, cell-based, Homo sapiens; conditions: Homo sapiens, NOMO-1;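 further: growth inhibition of human NOMO-1 cells measured by a cell viability assay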
Description: SANGER: Inhibition of human NOMO-1 cell growth in a cell viability assay.

NCI-H1650 = format: functional, cell-based, Homo sapiens; conditions: Homo sapiens, NCI-H1650;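 further: growth inhibition of human NCI-H1650 cells measured by a cell viability assay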
Description: SANGER: Inhibition of human NCI-H1650 cell growth in a cell viability assay.

TGBC1TKB = format: functional, cell-based, Homo sapiens; conditions: Homo sapiens, TGBC1TKB;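 further: growth inhibition of TGBC1TKB cells, read out by a cell viability assay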
Description: SANGER: Inhibition of human TGBC1TKB cell growth in a cell viability assay.

HOP-62 = format: functional, cell-based, Homo sapiens; conditions: Homo sapiens, HOP-62;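 further: cell growth inhibition determined with a viability assay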
Description: SANGER: Inhibition of human HOP-62 cell growth in a cell viability assay.

LXF-289 cell line = format: functional, cell-based; conditions: Homo sapiens
Description: SANGER: Inhibition of human LXF-289 cell growth in a cell viability assay.

OVCAR-4 = format: functional, cell-based, Homo sapiens; conditions: Homo sapiens, OVCAR-4;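 further: growth inhibition of human OVCAR-4 cells, measured with a cell viability assay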
Description: SANGER: Inhibition of human OVCAR-4 cell growth in a cell viability assay.

O=C1NC(=O)c2c1c(-c1ccccc1Cl)cc1[nH]c3ccc(O)cc3c21
IC50 (LS-1034): > 2000 nM | IC50 (ES3): > 2000 nM | IC50 (KNS-81-FD): > 2000 nM | IC50 (Mo): > 2000 nM | IC50 (ES1): > 2000 nM | IC50 (IA-LM): > 2000 nM | IC50 (SNU-C2B): > 2000 nM | IC50 (KM12): > 2000 nM | IC50 (PSN1): > 2000 nM | IC50 (MLMA): 541 nM | IC50 (HL-60): > 2000 nM | IC50 (AM-38): > 2000 nM | IC50 (SW 954): 213 nM | IC50 (ES7): > 2000 nM | IC50 (KARPAS-45): > 2000 nM | IC50 (NCI-H1155): > 2000 nM | IC50 (SK-N-DZ): > 2000 nM | IC50 (NCI-H446): > 2000 nM | IC50 (SBC-1): > 2000 nM | IC50 (CGTH-W-1): > 2000 nM | IC50 (RH-1): > 2000 nM | IC50 (D-263MG): > 2000 nM | IC50 (DSH1): > 2000 nM | IC50 (EW-18): > 2000 nM | IC50 (SF-268): > 2000 nM | IC50 (NCI-H226): > 2000 nM | IC50 (KALS-1): 834 nM | IC50 (GT3TKB): > 2000 nM | IC50 (OS-RC-2): > 2000 nM | IC50 (KM-H2): > 2000 nM | IC50 (COLO-684): > 2000 nM | IC50 (C2BBe1): > 2000 nM | IC50 (LB2241-RCC): 394 nM | IC50 (SK-N-FI): > 2000 nM | IC50 (SW982): > 2000 nM | IC50 (KINGS-1): > 2000 nM | IC50 (GOTO): 666 nM | IC50 (RPMI-8226): > 2000 nM | IC50 (NCI-H1648): > 2000 nM | IC50 (NB69): > 2000 nM | IC50 (A4-Fuk): > 2000 nM | IC50 (EW-16): > 2000 nM | IC50 (LB2518-MEL): > 2000 nM | IC50 (IST-MEL1): > 2000 nM | IC50 (NOMO-1): > 2000 nM | IC50 (NCI-H1650): > 2000 nM | IC50 (TGBC1TKB): > 2000 nM

CO[C@@H]1[C@H](N(C)C(=O)c2ccccc2)C[C@H]2O[C@]1(C)n1c3ccccc3c3c4c(c5c6ccccc6n2c5c31)C(=O)NC4 [MIDOSTAURIN]
IC50 (KM12): 92.8 nM | IC50 (HOP-62): 181 nM | IC50 (LXF-289 cell line): 330 nM | IC50 (KARPAS-45): > 512 nM | IC50 (EW-18): 322 nM | IC50 (GT3TKB): 380 nM | IC50 (COLO-684): > 512 nM | IC50 (NB69): > 512 nM | IC50 (TGBC1TKB): > 512 nM

CC1(C)CCC(c2ccc(Cl)cc2)=C(CN2CCN(c3ccc(C(=O)NS(=O)(=O)c4ccc(N[C@H](CCN5CCOCC5)CSc5ccccc5)c(S(=O)(=O)C(F)(F)F)c4)cc3)CC2)C1 [NAVITOCLAX]
IC50 (LS-1034): > 2000 nM | IC50 (ES3): > 2000 nM | IC50 (KNS-81-FD): 440 nM | IC50 (Mo): > 2000 nM | IC50 (ES1): > 2000 nM | IC50 (OVCAR-4): > 2000 nM | IC50 (IA-LM): > 2000 nM | IC50 (SNU-C2B): > 2000 nM | IC50 (KM12): > 2000 nM | IC50 (PSN1): > 2000 nM | IC50 (MLMA): 1970 nM | IC50 (LXF-289 cell line): > 2000 nM | IC50 (HL-60): 29.1 nM | IC50 (AM-38): > 2000 nM | IC50 (SW 954): > 2000 nM | IC50 (ES7): 1280 nM | IC50 (KARPAS-45): 78.1 nM | IC50 (NCI-H1155): > 2000 nM | IC50 (SK-N-DZ): > 2000 nM | IC50 (NCI-H446): > 2000 nM | IC50 (SBC-1): 1190 nM | IC50 (CGTH-W-1): > 2000 nM | IC50 (RH-1): > 2000 nM | IC50 (D-263MG): > 2000 nM | IC50 (DSH1): > 2000 nM | IC50 (EW-18): 68.4 nM | IC50 (SF-268): > 2000 nM | IC50 (NCI-H226): > 2000 nM | IC50 (KALS-1): > 2000 nM | IC50 (GT3TKB): > 2000 nM | IC50 (OS-RC-2): > 2000 nM | IC50 (KM-H2): > 2000 nM | IC50 (COLO-684): > 2000 nM | IC50 (C2BBe1): > 2000 nM | IC50 (LB2241-RCC): > 2000 nM | IC50 (SK-N-FI): > 2000 nM | IC50 (SW982): > 2000 nM | IC50 (KINGS-1): > 2000 nM | IC50 (GOTO): > 2000 nM | IC50 (RPMI-8226): 457 nM | IC50 (NCI-H1648): 1710 nM | IC50 (NB69): 1460 nM | IC50 (A4-Fuk): > 2000 nM | IC50 (EW-16): 813 nM | IC50 (LB2518-MEL): > 2000 nM | IC50 (IST-MEL1): > 2000 nM | IC50 (NOMO-1): > 2000 nM | IC50 (NCI-H1650): > 2000 nM | IC50 (TGBC1TKB): 1140 nM

CS(=O)(=O)N1CCN(Cc2cc3nc(-c4cccc5[nH]ncc45)nc(N4CCOCC4)c3s2)CC1 [PICTILISIB]
IC50 (LS-1034): > 4000 nM | IC50 (ES3): > 4000 nM | IC50 (KNS-81-FD): > 4000 nM | IC50 (Mo): > 4000 nM | IC50 (ES1): 2210 nM | IC50 (OVCAR-4): > 4000 nM | IC50 (IA-LM): > 4000 nM | IC50 (SNU-C2B): > 4000 nM | IC50 (KM12): > 4000 nM | IC50 (PSN1): > 4000 nM | IC50 (MLMA): > 4000 nM | IC50 (LXF-289 cell line): 448 nM | IC50 (HL-60): 426 nM | IC50 (AM-38): > 4000 nM | IC50 (SW 954): > 4000 nM | IC50 (ES7): 342 nM | IC50 (NCI-H1155): > 4000 nM | IC50 (SK-N-DZ): > 4000 nM | IC50 (NCI-H446): > 4000 nM | IC50 (CGTH-W-1): > 4000 nM | IC50 (RH-1): > 4000 nM | IC50 (D-263MG): 718 nM | IC50 (DSH1): > 4000 nM | IC50 (SF-268): > 4000 nM | IC50 (NCI-H226): > 4000 nM | IC50 (KALS-1): > 4000 nM | IC50 (GT3TKB): > 4000 nM | IC50 (OS-RC-2): > 4000 nM | IC50 (KM-H2): > 4000 nM | IC50 (COLO-684): 523 nM | IC50 (C2BBe1): > 4000 nM | IC50 (LB2241-RCC): 304 nM | IC50 (SK-N-FI): > 4000 nM | IC50 (SW982): > 4000 nM | IC50 (KINGS-1): > 4000 nM | IC50 (GOTO): > 4000 nM | IC50 (RPMI-8226): > 4000 nM | IC50 (NCI-H1648): 999 nM | IC50 (NB69): 245 nM | IC50 (A4-Fuk): 1300 nM | IC50 (EW-16): 1850 nM | IC50 (LB2518-MEL): > 4000 nM | IC50 (IST-MEL1): > 4000 nM | IC50 (NOMO-1): > 4000 nM | IC50 (NCI-H1650): > 4000 nM | IC50 (TGBC1TKB): > 4000 nM
